Measurements taken from PMC10650415, “Synthesis of Tetracyclic Spirooxindolepyrrolidine-Engrafted Hydantoin Scaffolds: Crystallographic Analysis, Molecular Docking Studies and Evaluation of Their Antimicrobial, Anti-Inflammatory and Analgesic Activities” (Molecules, 2023).
Values after ≈ are worked out from the molar mass of the structure shown.

How the values were obtained:
[1] = system: C. albicans ATCC 90028; test: MFC by the agar method; settings: for MFC/MIC ratio: C. Albicans, ≤ 4 fungicidal, >4 fungistatic; for MFC: Candida albicans, ATCC90028
Procedure: (§2) To further determine the killing efficiency of the synthesized spiropyrrolidines against selected strains, the minimum bactericidal concentration (MBC) and the minimum fungicidal concentration (MFC) were assessed by the agar method [54].

[2] = system: acetic acid-induced writhing; test: Acetic acid-induced writhing test (analgesic); settings: 100 mg/kg; for Number of Writhing: mean ± SE
Procedure: Any writhing was considered a positive response. The efficacy and potency of analgesic activity of the test compounds is inferred from the reduction in the frequency of writhings [53].
Analgesic activity in rats was determined by the protocol described by Tiss et al. [82].

[3] = system: P. aeruginosa ATCC 27950; test: MBC by the agar method; settings: Pseudomonas aeruginosa, ATCC27950
Procedure: as §2

[4] = system: C. kreusei ATCC 6258; test: MFC by the agar method; settings: for MFC/MIC ratio: C. Krusei, ≤ 4 fungicidal, >4 fungistatic; for MFC: Pichia kudriavzevii, ATCC6258
Procedure: as §2

[5] = system: M. luteus NCIMB 8166; test: MBC by the agar method; settings: Micrococcus luteus, NCIMB8166
Procedure: as §2

[6] = system: λ-carrageenan-induced paw edema; test: Carrageenan-induced paw edema test; type: in vivo; settings: rats; for Increase in Paw Volume, 0 h / Increase in Paw Volume, 1 h / Increase in Paw Volume, 2 h / Increase in Paw Volume, 4 h: 10 mg/kg orally 1 h before carrageenan; for % Inhibition of Edema, 1 h / % Inhibition of Edema, 2 h / % Inhibition of Edema, 4 h: 10 mg/kg orally
Source text: Diclofenac sodium was used as a reference drug.

[7] = biological target: T1, Lipoxygenase-5 (LOX-5) enzyme (Homo sapiens, UniProt P09917); test: In vitro lipoxygenase (LOX-5) inhibitory assay; type: biochemical; settings: mean ± SEM, n = 5; read-out: IC50 (LOX-5 inhibition) (converted)
T1 construct: purchased sigma 437996-500U
T1 sequence (P09917 1-674): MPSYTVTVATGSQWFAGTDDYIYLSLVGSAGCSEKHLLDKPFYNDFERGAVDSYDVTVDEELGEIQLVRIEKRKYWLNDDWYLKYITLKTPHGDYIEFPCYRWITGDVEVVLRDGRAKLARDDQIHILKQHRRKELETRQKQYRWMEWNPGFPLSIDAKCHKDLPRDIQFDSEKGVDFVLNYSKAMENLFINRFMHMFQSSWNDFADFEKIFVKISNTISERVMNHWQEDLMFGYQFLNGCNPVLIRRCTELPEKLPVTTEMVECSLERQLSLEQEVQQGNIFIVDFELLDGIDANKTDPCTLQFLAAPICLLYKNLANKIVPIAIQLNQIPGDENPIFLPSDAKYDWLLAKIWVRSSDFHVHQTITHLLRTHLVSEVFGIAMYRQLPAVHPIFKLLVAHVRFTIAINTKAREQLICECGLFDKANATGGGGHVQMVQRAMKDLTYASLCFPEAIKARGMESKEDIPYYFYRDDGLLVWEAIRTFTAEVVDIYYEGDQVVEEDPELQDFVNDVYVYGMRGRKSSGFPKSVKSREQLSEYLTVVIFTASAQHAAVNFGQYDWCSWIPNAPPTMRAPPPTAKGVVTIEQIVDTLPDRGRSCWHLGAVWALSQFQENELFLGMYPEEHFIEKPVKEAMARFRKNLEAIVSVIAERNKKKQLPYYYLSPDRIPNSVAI
Procedure: Lipoxygenases are a family of monomeric proteins that catalyze oxidation of polyunsaturated fatty acids (PUFA) (linoleic, linolenic and arachidonic acid) to produce hydroperoxides. Fractions’ anti-LOX activity was also measured as inhibition of linoleic acid’s peroxidation to hydroperoxylinoleic acid.
To evaluate the prospects of the newly synthesized spirooxindoles as promising drug candidates, we first studied their inhibitory potency against the Lipoxygenase-5 (LOX-5) enzyme.

[8] = Acute toxicity (liver and kidney indices); type: in vivo; settings: rats; for ALT / AST / Albumin / Creat / Urea: dose of 16.25 mg/kg; for Acute toxicity (result in words): up to a dose of 16.25 mg/kg
[9] = system: E. coli ATCC 25922; test: MBC by the agar method; settings: Escherichia coli, ATCC25922, E. coli ATCC 25922
Procedure: as §2

[10] = system: S. aureus ATCC 25923; test: MBC by the agar method; settings: Staphylococcus aureus, ATCC25923
Procedure: as §2

[11] = system: Staphylocoocus aureus ATCC 25923; test: MIC, in vitro micro diffusion method; type: cell-based; settings: Staphylococcus aureus, ATCC25923; S. aureus ATCC 25923
Source text: (§1) In this part, the spiropyrrolidines 4a–m were selected to be screening for their antimicrobial activities, using in vitro micro diffusion method, against multiple bacterial strains (Staphylocoocus aureus ATCC 25923, Escherichia coli ATCC 25922, Pseudomonas aeruginosa ATCC 27950, Micrococcus luteus NCIMB 8166), and two pathogenic reference yeasts namely Candida albicans ATCC 90028 and Candida kreusei ATCC 6258.

[12] = system: Candida kreusei ATCC 6258; test: MIC, in vitro micro diffusion method; type: cell-based; settings: C. krusei ATCC 6258
Source text: as §1

[13] = system: Micrococcus luteus NCIMB 8166; test: MIC, in vitro micro diffusion method; type: cell-based; settings: NCIMB8166, M. luteus NCIMB 8166
Source text: as §1

In the case of `O=C1NC(=O)[C@]2(N1)[C@@H](c1ccc(F)cc1)[C@H](c1ccccc1)N[C@@]21C(=O)Nc2ccccc21` (racemic) [4i], the MFC/MIC ratio [1] is reported as at most 4, the MFC [1] is reported as 93.8 µg/mL (≈ 212 µM) and the “% Inhibition (writhing)” value [2] is reported as 42%. The “Number of Writhing” value [2] was 36 ± 5, the MBC [3] was 188 µg/mL (≈ 424 µM) and the MFC/MIC ratio [4] was at most 4. The MFC [4] was 188 µg/mL (≈ 424 µM), the MBC [5] was over 1500 µg/mL and the “Increase in Paw Volume, 0 h” value [6] was 0.43 ± 0.14. For the same compound, the “Increase in Paw Volume, 1 h” value [6] was 0.98 ± 0.11, the “Increase in Paw Volume, 2 h” value [6] was 1.13 ± 0.21 and the “Increase in Paw Volume, 4 h” value [6] was 1.51 ± 0.13. For the same compound, the “% Inhibition of Edema, 1 h” value [6] was 27%, the “% Inhibition of Edema, 2 h” value [6] was 25% and the “% Inhibition of Edema, 4 h” value ([6]; 10 mg/kg) was 33%. The IC50 [7] was 2280 µM, the ALT [8] was 21.1 ± 1.5 U/L and the AST [8] was 98.3 ± 13 U/L. It also gave an Albumin [8] of 8.7 ± 1.66 g/L, a Creat [8] of 3.31 ± 0.9 µmol/L and a Urea [8] of 2.83 ± 0.7 mmol/L. For the same compound, the “Acute toxicity (result in words)” value [8] was “did not cause any toxicity”, the MBC [9] was 750 µg/mL (≈ 1700 µM) and the MBC [10] was 750 µg/mL (≈ 1700 µM).
`O=C1NC(=O)[C@]2(N1)[C@@H](c1ccc(F)cc1)[C@H](c1ccccc1)N[C@@]21C(=O)Nc2ccc(Cl)cc21` (racemic) [4j] showed an MFC [1] of 93.8 µg/mL (≈ 197 µM), an MBC [3] of 93.8 µg/mL (≈ 197 µM) and an MFC [4] of 188 µg/mL (≈ 393 µM). It also gave an MBC [5] of 750 µg/mL (≈ 1570 µM), an IC50 [7] of 4030 µM and a melting point of 208 °C. For the same compound, the MBC [9] was 188 µg/mL (≈ 393 µM) and the MBC [10] was 93.8 µg/mL (≈ 197 µM).
Compound `O=C1NC(=O)[C@]2(N1)[C@@H](c1ccc(F)cc1)[C@H](c1ccccc1)N[C@@]21C(=O)Nc2ccc(Br)cc21` (racemic) [4k] has an MFC/MIC ratio [1] of at most 4, an MFC [1] of 188 µg/mL (≈ 360 µM) and an MBC [3] of 188 µg/mL (≈ 360 µM). It also gave an MFC/MIC ratio [4] of at most 4, an MFC [4] of 188 µg/mL (≈ 360 µM) and an MBC [5] of over 1500 µg/mL. For the same compound, the IC50 [7] was 2970 µM, the melting point was 223 °C and the MBC [9] was 188 µg/mL (≈ 360 µM). For the same compound, the MBC [10] was 188 µg/mL (≈ 360 µM).
With `O=C1NC(=O)[C@]2(N1)[C@@H](c1ccccc1O)[C@H](c1ccccc1)N[C@@]21C(=O)Nc2ccccc21` (racemic) [4l] the MFC/MIC ratio [1] was at most 4, the MFC [1] was 188 µg/mL (≈ 426 µM) and the “% Inhibition (writhing)” value [2] was 53%. For the same compound, the “Number of Writhing” value [2] was 29 ± 6, the MBC [3] was 93.8 µg/mL (≈ 213 µM) and the MFC/MIC ratio [4] was at most 4. For the same compound, the MFC [4] was 93.8 µg/mL (≈ 213 µM), the MBC [5] was 750 µg/mL (≈ 1700 µM) and the “Increase in Paw Volume, 0 h” value [6] was 0.57 ± 0.19. The “Increase in Paw Volume, 1 h” value [6] was 0.93 ± 0.13, the “Increase in Paw Volume, 2 h” value [6] was 1.26 ± 0.31 and the “Increase in Paw Volume, 4 h” value [6] was 1.73 ± 0.33. The “% Inhibition of Edema, 1 h” value [6] was 29%, the “% Inhibition of Edema, 2 h” value [6] was 18% and the “% Inhibition of Edema, 4 h” value [6] was 32%. For the same compound, the IC50 [7] was 2470 µM, the ALT [8] was 22 ± 1.7 U/L and the AST [8] was 101 ± 11 U/L. It also gave an Albumin [8] of 8.5 ± 1.1 g/L, a Creat [8] of 3.41 ± 0.8 µmol/L and a Urea [8] of 2.97 ± 0.5 mmol/L. The “Acute toxicity (result in words)” value [8] was “did not cause any toxicity”, the MBC [9] was 188 µg/mL (≈ 426 µM) and the MBC [10] was 93.8 µg/mL (≈ 213 µM). The MIC [11] was 46.9 µg/mL (≈ 106 µM).
`C[C@@H]1[C@H](O)[C@@H](C)/C=C/C=C/C=C/C=C/C=C/C=C/C=C/[C@H](O[C@@H]2O[C@H](C)[C@@H](O)[C@H](N)[C@@H]2O)C[C@@H]2O[C@](O)(C[C@@H](O)C[C@@H](O)[C@H](O)CC[C@@H](O)C[C@@H](O)CC(=O)O[C@H]1C)C[C@H](O)[C@H]2C(=O)O` [Amphotericin B, reference compound] showed an MFC [1] of 500 µg/mL (≈ 541 µM), an MFC [4] of 62.5 µg/mL (≈ 67.6 µM) and an MIC [12] of 62.5 µg/mL (≈ 67.6 µM).
With `O=C(O)Cc1ccccc1Nc1c(Cl)cccc1Cl` [Diclofenac sodium, reference compound] the “% Inhibition (writhing)” value [2] was 63%, the “Number of Writhing” value [2] was 23 ± 4 and the “Number of Writhing” value ([2]; listed as diclofenac sodium) was 23. The “Increase in Paw Volume, 0 h” value [6] was 0.41 ± 0.11, the “Increase in Paw Volume, 1 h” value [6] was 0.59 ± 0.13 and the “Increase in Paw Volume, 2 h” value [6] was 0.83 ± 0.19. For the same compound, the “Increase in Paw Volume, 4 h” value [6] was 1.21 ± 0.39, the “% Inhibition of Edema, 1 h” value [6] was 30% and the “% Inhibition of Edema, 2 h” value [6] was 46%. The “% Inhibition of Edema, 4 h” value [6] was 46%.
Compound `CN(C)[C@@H]1C(O)=C(C(N)=O)C(=O)[C@@]2(O)C(O)=C3C(=O)c4c(O)cccc4[C@@](C)(O)[C@H]3C[C@@H]12` [Tetracycline, reference compound] has an MBC [3] of 128 µg/mL (≈ 288 µM), an MBC [5] of 512 µg/mL (≈ 1150 µM) and an MBC [9] of 512 µg/mL (≈ 1150 µM). It also gave an MBC [10] of 8 µg/mL (≈ 18 µM) and an MIC [13] of 500 µg/mL (≈ 1130 µM).
